Like-named read-outs stand apart in the source and are kept apart here.
What was measured:
[1] = human clinical trial, pharmacokinetics of Tablet Formulation 6 and Tablet Formulation 7, fasted and fed; settings: in vivo, GM; for AUC(0-t): read-out: AUC0-24 hr
log D of Compound III = assay type: physicochemical; settings: pH=7
Procedure: (§1) Even in its amorphous state, the apparent solubility of neat amorphous Compound […] in simulated fasted-state intestinal fluid is 50 μg/mL after two hours of equilibration. In order to enable absorption of Compound III, solid dispersion formulations of Compound III were formulated at a drug loading less than or equal to 40% in combination with absorption-enhancing polymers and surfactants as described in U.S. Provisional Patent Application No. 61/936,019, filed Feb. 5, 2014; PCT International Patent Application Nos. PCT/US2015/014195 and PCT/US2015/014201, filed Feb. 3, 2015.

[2] = solubility in simulated fasted-state intestinal fluid; assay type: physicochemical; settings: fassif
Procedure: as §1

[3] = oral, administered as Tablet Formulation 6, single dose of two tablets, Fasted
[4] = oral, administered as Tablet Formulation 6, single dose of two tablets, Fed (High-Fat Meal)
[5] = oral, administered as Tablet Formulation 7, single dose of two tablets, Fasted
[6] = oral, administered as Tablet Formulation 7, single dose of two tablets, Fed (High-Fat Meal)
[7] = administered as Tablet Formulation 6, single dose of two tablets, Fasted
[8] = administered as Tablet Formulation 6, single dose of two tablets, Fed (High-Fat Meal)
[9] = administered as Tablet Formulation 7, single dose of two tablets, Fasted
[10] = administered as Tablet Formulation 7, single dose of two tablets, Fed (High-Fat Meal)

SMILES	AUC(0-inf) [1, 3]	Cmax [1, 3]	AUC(0-t) [1, 3]	AUC(0-inf) [1, 4]	Cmax [1, 4]	AUC(0-t) [1, 4]	AUC(0-inf) [1, 5]	Cmax [1, 5]	AUC(0-t) [1, 5]	AUC(0-inf) [1, 6]	Cmax [1, 6]	AUC(0-t) [1, 6]	also measured
COC(=O)N[C@H](C(=O)N1CCC[C@H]1c1ncc(-c2cc(F)c3c(c2)O[C@@H](c2cnc(C4CC4)s2)n2c-3cc3cc(-c4cnc([C@@H]5CCCN5C(=O)[C@@H](NC(=O)OC)C(C)C)[nH]4)ccc32)[nH]1)C(C)C [Compound II, dimethyl ((2S,2′S)-((2S,2′S)-2,2′-(5,5′-((S)-6-(2-cyclopropylthiazol-5-yl)-1-fluoro-6H-benzo[5,6][1,3]oxazino[3,4-a]indole-3,10-diyl)bis(1H-imidazole-5,2-diyl))bis(pyrrolidine-2,1-diyl))bis(3-methyl-1-oxobutane-2,1-diyl))dicarbamate]	942 nM·h	0.057 µM	572 nM·h	1110 nM·h	0.0681 µM	658 nM·h	1310 nM·h	0.0772 µM	783 nM·h	1200 nM·h	0.0787 µM	716 nM·h	
C=C[C@@H]1C[C@]1(NC(=O)[C@@H]1C[C@@H]2CN1C(=O)[C@H](C(C)(C)C)NC(=O)O[C@@H]1C[C@H]1CCCCCc1nc3ccc(OC)cc3nc1O2)C(=O)NS(=O)(=O)C1CC1 [Compound III, (1aR,5S,8S,10R,22aR)—N-[(1R,2S)-1-[(cyclopropylsulfonamido)carbonyl]-2-ethenylcyclopropyl]-14-methoxy-5-(2-methylpropan-2-yl)-3,6-dioxo-1,1a,3,4,5,6,9,10,18,19,20,21,22,22a-tetradecahydro-8H-7,10-methanocyclopropa[18,19][1,10,3,6]dioxadiazacyclononadecino[11,12-b]quinoxaline-8-carboxamide hydrate]	508 nM·h	0.0256 µM	218 nM·h	628 nM·h	0.0443 µM	330 nM·h	598 nM·h	0.0312 µM	285 nM·h	733 nM·h	0.0612 µM	380 nM·h	logD (log D of Compound III): ~3; solubility [2]: < 0.007 mg/mL
CC(C)OC(=O)[C@@H](C)NP(=O)(OC[C@H]1O[C@@H](n2ccc(=O)[nH]c2=O)[C@](C)(Cl)[C@@H]1O)Oc1ccccc1 (stereo partly drawn) [Compound I, (2R)-isopropyl 2-(((((2R,3R,4R,5R)-4-chloro-5-(2,4-dioxo-3,4-dihydropyrimidin-1(2H)-yl)-3-hydroxy-4-methyltetrahydrofuran-2-yl)methoxy)(phenoxy)phosphoryl)amino)propanoate]													solubility at 2 h ([2]; thermodynamic from solid, after two hours of equilibration, read-out: apparent solubility of neat amorphous compound): 0.05 mg/mL; AUC(0-inf) [1, 7]: 2730 nM·h; Cmax [1, 7]: 0.9 µM; AUC(0-t) [1, 7]: 2630 nM·h; AUC(0-inf) [1, 8]: 3910 nM·h; Cmax [1, 8]: 1.42 µM; AUC(0-t) [1, 8]: 3850 nM·h; AUC(0-inf) [1, 9]: 3010 nM·h; Cmax [1, 9]: 0.897 µM; AUC(0-t) [1, 9]: 2910 nM·h; AUC(0-inf) [1, 10]: 4080 nM·h; Cmax [1, 10]: 1.74 µM; AUC(0-t) [1, 10]: 4360 nM·h
